The text below walks through data of patent US5082828A, “Eclosion hormone peptides” (Sandoz Ltd., priority 1991, dated 1992).

In data set [1] the test system is late second stadium M. sexta. The format is in vivo, Manduca sexta. The procedure: The biological activity of isolated EH is assayed as follows. Late second stadium M. sexta are selected for assay when third stadium mandibles are visible through the fluid-filled second stadium head capsule. Development of these larvae, held at 31° C., is checked at 15 min intervals until an air bubble first appears in the head capsule. "Air bubble" larvae are immediately injected in the dorsal abdomen with 1 μl of the test fractions, and time to molt of treated and controls is compared at room temperature ~21° C.). Mean time to molt for EH-affected larvae is 50 min; that for controls is 109 min. Purified EH is active at 0.1 ng per pharate adult H. virescens, and at 0.01 ng per second stadium M. sexta.

Data set [2] deals with larval molt. The following applies: EH present in the hemolymph during a sensitive period when it is normally absent; cited from earlier work.
Data set [3] concerns pharate adult H. virescens. Set-up: species or system Heliothis virescens. As to conditions: in vivo. The procedure: The biological activity of EH in fractions from each purification step is detected using a pharate adult H. virescens in vivo assay, similar to that described by Fugo (1983) Appl. Ent. Zoo. 18:540-44 and Truman (1973) Biol. Bull. 14:44:200-211, both of which are incorporated by reference. Insects are injected in the dorsal thorax with 5 μl aliquots dissolved in physiological saline, approximately 7 hr before normal eclosion, which occurs just after the onset of darkness. Moths eclosing within 3 hr of injection are scored as receiving EH, a positive response.

Take Eclosion hormone [EH]: the “mean time to molt” value in data set [1] (EH-affected larvae at room temperature ~21° C., controls 109 min) came out at 50 min. The “dose evoking positive EH-like response (active dose)” value in data set [1] (in vivo) was 0.01 ng per second stadium M. sexta; in data set [3], 0.1 ng per pharate adult. The “effect on larval molt” value in data set [2] is listed as “block the larval molt completely”.
